Test results as given in article PMC3914206.

Assays:
Format in all cases: binding
Settings in all cases: Compound Concentration 10 µM
panel of 442 kinases [1] = target: T1, panel of 442 kinases (Homo sapiens, UniProt P78356)
T1 construct: purchased KINOMEscan
T1 sequence (P78356 1-416): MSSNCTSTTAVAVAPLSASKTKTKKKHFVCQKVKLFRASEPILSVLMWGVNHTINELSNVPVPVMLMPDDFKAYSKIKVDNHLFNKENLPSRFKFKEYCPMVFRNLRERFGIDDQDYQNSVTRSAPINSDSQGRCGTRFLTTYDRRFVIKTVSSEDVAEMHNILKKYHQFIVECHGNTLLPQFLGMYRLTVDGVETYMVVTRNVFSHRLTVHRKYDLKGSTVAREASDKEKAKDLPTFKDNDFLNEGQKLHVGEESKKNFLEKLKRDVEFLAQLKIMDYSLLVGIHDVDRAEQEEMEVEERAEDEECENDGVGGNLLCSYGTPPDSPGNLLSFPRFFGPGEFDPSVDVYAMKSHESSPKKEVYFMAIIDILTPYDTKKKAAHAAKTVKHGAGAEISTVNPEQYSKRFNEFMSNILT
Text: (§1) We assessed the selectivity of members of this scaffold using the KINOMEscan methodology across a near comprehensive panel of 442 kinases [[18,27]].

panel of 442 kinases [2] = target: T2, panel of 442 kinases (Homo sapiens, UniProt Q13188)
T2 construct: purchased KINOMEscan
T2 sequence (Q13188 1-491): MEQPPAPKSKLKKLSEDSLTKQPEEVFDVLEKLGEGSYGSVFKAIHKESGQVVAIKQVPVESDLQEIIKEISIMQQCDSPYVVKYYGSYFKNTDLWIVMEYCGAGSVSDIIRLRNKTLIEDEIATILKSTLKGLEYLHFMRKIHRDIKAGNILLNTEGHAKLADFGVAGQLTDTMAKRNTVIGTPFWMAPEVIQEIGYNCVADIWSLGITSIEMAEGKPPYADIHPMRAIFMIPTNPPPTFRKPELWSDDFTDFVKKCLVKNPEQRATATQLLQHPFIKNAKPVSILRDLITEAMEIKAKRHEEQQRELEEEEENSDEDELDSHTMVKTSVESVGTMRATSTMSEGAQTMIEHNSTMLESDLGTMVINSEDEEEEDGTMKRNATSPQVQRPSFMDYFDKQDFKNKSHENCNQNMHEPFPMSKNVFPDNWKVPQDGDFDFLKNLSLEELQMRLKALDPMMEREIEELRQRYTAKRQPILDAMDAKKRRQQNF
Text: as §1

panel of 442 kinases [3] = target: T3, panel of 442 kinases (Homo sapiens, UniProt Q9BUB5)
T3 construct: purchased KINOMEscan
Text: as §1

T3 sequence (Q9BUB5 whole entry): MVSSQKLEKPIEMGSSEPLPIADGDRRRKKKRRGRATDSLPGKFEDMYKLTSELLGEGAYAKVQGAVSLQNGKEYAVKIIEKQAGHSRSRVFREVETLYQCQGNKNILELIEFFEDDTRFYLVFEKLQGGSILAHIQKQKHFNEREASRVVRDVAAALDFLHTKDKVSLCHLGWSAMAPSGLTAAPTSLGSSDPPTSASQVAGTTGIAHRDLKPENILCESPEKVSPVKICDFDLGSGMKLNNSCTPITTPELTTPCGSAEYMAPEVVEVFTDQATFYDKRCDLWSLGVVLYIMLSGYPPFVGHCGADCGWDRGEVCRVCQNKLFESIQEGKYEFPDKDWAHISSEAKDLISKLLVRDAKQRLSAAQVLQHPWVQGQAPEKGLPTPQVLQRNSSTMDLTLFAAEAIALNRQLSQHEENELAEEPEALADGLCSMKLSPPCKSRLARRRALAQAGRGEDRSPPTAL

For `COc1cc(C(=O)N2CCC(N3CCN(C)CC3)CC2)ccc1Nc1ncc2c(n1)N(C)c1ccccc1C(=O)N2C` [15 (LRRK2-IN-1)], the “KINOMEscan: PIP5K2B” value (panel of 442 kinases [1]) was 100, the “KINOMEscan: MST2” value (panel of 442 kinases [2]) was 71 and the “KINOMEscan: MKNK1” value (panel of 442 kinases [3]) was 50.
`COc1cc(C(=O)N2CCC(N3CCN(C)CC3)CC2)ccc1Nc1ncc2c(n1)N(C1CCCC1)c1ccccc1C(=O)N2C` [Compound 25, 11-cyclopentyl-2-((2-methoxy-4-(4-(4-methylpiperazin-1-yl)piperidine-1-carbonyl)phenyl)amino)-5-methyl-5H-benzo[e]pyrimido[5,4-b][1,4]diazepin-6(11H)-one] was tested, and the “KINOMEscan: PIP5K2B” value (panel of 442 kinases [1]) was 100, the “KINOMEscan: MST2” value (panel of 442 kinases [2]) was 100 and the “KINOMEscan: MKNK1” value (panel of 442 kinases [3]) was 100.
`CCOc1cc(C(=O)N2CCC(N3CCN(C)CC3)CC2)ccc1Nc1ncc2c(n1)N(C1CCCC1)c1ccccc1C(=O)N2C` [Compound 26] was tested, and the “KINOMEscan: PIP5K2B” value (panel of 442 kinases [1]) was 100, the “KINOMEscan: MST2” value (panel of 442 kinases [2]) was 100 and the “KINOMEscan: MKNK1” value (panel of 442 kinases [3]) was 96.
